Assay results reported in patent US20130149362A1, “TREATMENT PRODUCT AND METHOD” (priority 2007, published 2013).

Assay: penetration of retinal into the skin (topical application)
Settings: retinal by itself

- penetration rate: about 2%
SMILES: CC1=C(/C=C/C(C)=C/C=C/C(C)=C/C=O)C(C)(C)CCC1 [Retinal]
